Tests used:
B. subtilis AWD 166 = experiment: agar diffusion test (antimicrobial effect); assay type: cell-based, Bacillus subtilis
Outline: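 Nutrient agar seeded with B. subtilis AWD 166 to give dense non-confluent colonies; compounds in methanol or distilled water applied to discs at 10, 50, 100 μg. After 20 h at 37 °C, inhibition zone diameter measured in mm.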

E. faecalis 945 = experiment: agar diffusion test (Test System II, multi-resistant germs); assay type: cell-based, Enterococcus faecalis; set-up: key: r = resistant (no detectable zone of inhibition)
Outline: (§1)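 Müller-Hinton II plates spread in three directions with McFarland 0.5 bacterial suspension carry three sensi-discs with 10, 50 and 100 μg substance from methanol or water. After 18-20 h at 37 °C, zone-of-inhibition diameters are measured.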

S. aureus 33490 = experiment: as above; assay type: cell-based, Staphylococcus aureus; set-up: key: r = resistant (no detectable zone of inhibition)
Outline: as §1

S. aureus 34289 = experiment: as above; assay type: cell-based, Staphylococcus aureus; set-up: key: r = resistant (no detectable zone of inhibition)
Outline: as §1

S. aureus 36881 = experiment: as above; assay type: cell-based, Staphylococcus aureus; set-up: key: r = resistant (no detectable zone of inhibition)
Outline: as §1

S. aureus 39105 = experiment: as above; assay type: cell-based, Staphylococcus aureus; set-up: key: r = resistant (no detectable zone of inhibition)
Outline: as §1

S. aureus 520 = experiment: as above; assay type: cell-based, Staphylococcus aureus; set-up: key: r = resistant (no detectable zone of inhibition)
Outline: as §1

S. aureus 526 = experiment: as above; assay type: cell-based, Staphylococcus aureus; set-up: key: r = resistant (no detectable zone of inhibition)
Outline: as §1

[1] = tested on: S. aureus North Germany strain; experiment: as above; assay type: cell-based, Staphylococcus aureus; set-up: key: r = resistant (no detectable zone of inhibition)
Outline: as §1

S. aureus 38418 = experiment: as above; assay type: cell-based, Staphylococcus aureus
Outline: as §1

S. aureus ATCC 6538 = experiment: as above; assay type: cell-based, Staphylococcus aureus
Outline: as §1

S. epidermidis 1068 = experiment: as above; assay type: cell-based, Staphylococcus epidermidis
Outline: as §1

S. epidermidis 1071 = experiment: as above; assay type: cell-based, Staphylococcus epidermidis
Outline: as §1

S. epidermidis 563 = experiment: as above; assay type: cell-based, Staphylococcus epidermidis
Outline: as §1

S. epidermidis 847 = experiment: as above; assay type: cell-based, Staphylococcus epidermidis
Outline: as §1

[2] = tested on: Staphylococcus aureus ATCC 6538; experiment: mouse infected with Staphylococcus aureus infection model (survival); assay type: in vivo, BALB/c mice; conditions: 2 × 0.5 mg (25 mg/kg) i.p.
Outline: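 BALB/c mice, at least 3 per group, made neutropenic with cyclophosphamide i.p. (250 mg/kg day 0, 100 mg/kg day 2). Infected i.p. on day 3 with 10 μl/g of S. aureus suspension at OD550 0.6 (ca. 10^10-10^12 CFU). Antibiotic given i.p. in PBS with 3% DMSO 30 min post-infection, then repeated; survival recorded.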

`O=C(O)C1=C(Cl)CSC2C(NC(=O)C(NC3=C(C(=O)NCCO)C(=O)C=CC3=O)c3ccccc3)C(=O)N12` (stereo not shown) [1i, 3-chlorine-7-{2-[2-(2-hydroxyethylcarbamoyl)-3,6-dioxocyclohexa-1,4-dienylamino]-2-phenyl-acetylamino}-8-oxo-1-thia-5-azabicyclo[4.2.0]oct-3-en-4-carboxylic acid] was tested, and the “Diameter of zone of inhibition” value (B. subtilis AWD 166; Quantity n 0.029) was 30 mm, the “Diameter of zone of inhibition” value (B. subtilis AWD 166; Quantity n 0.14) was 36 mm and the “Diameter of zone of inhibition” value (B. subtilis AWD 166; Quantity n 0.29) was 38 mm. For the same molecule, the “Diameter of zone of inhibition” value (E. faecalis 945; Quantity n 0.029) was “r”, the “Diameter of zone of inhibition” value (E. faecalis 945; Quantity n 0.14) was “r” and the “Diameter of zone of inhibition” value (E. faecalis 945; Quantity n 0.29) was “r”. For the same molecule, the “Diameter of zone of inhibition” value (S. aureus 33490; Quantity n [μmol] 0.029) was 14 mm, the “Diameter of zone of inhibition” value (S. aureus 33490; Quantity n [μmol] 0.14) was 22 mm and the “Diameter of zone of inhibition” value (S. aureus 33490; Quantity n [μmol] 0.29) was 26 mm. The “Diameter of zone of inhibition” value (S. aureus 34289; Quantity n [mol] 0.029) was “r”, the “Diameter of zone of inhibition” value (S. aureus 34289; Quantity n [mol] 0.14) was “r” and the “Diameter of zone of inhibition” value (S. aureus 34289; Quantity n [mol] 0.29) was “r”. The “Diameter of zone of inhibition” value (S. aureus 36881; Quantity n 0.029) was “r”, the “Diameter of zone of inhibition” value (S. aureus 36881; Quantity n 0.14) was 12 mm and the “Diameter of zone of inhibition” value (S. aureus 36881; Quantity n 0.29) was 18 mm. The “Diameter of zone of inhibition” value (S. aureus 39105; Quantity n 0.029) was “r”, the “Diameter of zone of inhibition” value (S. aureus 39105; Quantity n 0.14) was 18 mm and the “Diameter of zone of inhibition” value (S. aureus 39105; Quantity n 0.29) was 22 mm. For the same molecule, the “Diameter of zone of inhibition” value (S. aureus 520; Quantity n [mol] 0.029) was “r”, the “Diameter of zone of inhibition” value (S. aureus 520; Quantity n [mol] 0.14) was “r” and the “Diameter of zone of inhibition” value (S. aureus 520; Quantity n [mol] 0.29) was “r”. The “Diameter of zone of inhibition” value (S. aureus 526; Quantity n 0.029) was “r”, the “Diameter of zone of inhibition” value (S. aureus 526; Quantity n 0.14) was “r” and the “Diameter of zone of inhibition” value (S. aureus 526; Quantity n 0.29) was “r”. The “Diameter of zone of inhibition” value ([1]; Quantity n 0.029) was “r”, the “Diameter of zone of inhibition” value ([1]; Quantity n 0.14) was 12 mm and the “Diameter of zone of inhibition” value ([1]; Quantity n 0.29) was 16 mm. For the same molecule, the “Diameter of zone of inhibition” value (S. aureus 38418; Quantity n [mol] 0.029) was 20 mm, the “Diameter of zone of inhibition” value (S. aureus 38418; Quantity n [mol] 0.14) was 30 mm and the “Diameter of zone of inhibition” value (S. aureus 38418; Quantity n [mol] 0.29) was 34 mm. For the same molecule, the “Diameter of zone of inhibition” value (S. aureus ATCC 6538; Quantity n 0.029) was 26 mm, the “Diameter of zone of inhibition” value (S. aureus ATCC 6538; Quantity n 0.14) was 34 mm and the “Diameter of zone of inhibition” value (S. aureus ATCC 6538; Quantity n 0.29) was 36 mm. For the same molecule, the “Diameter of zone of inhibition” value (S. epidermidis 1068; Quantity n 0.029) was 12 mm, the “Diameter of zone of inhibition” value (S. epidermidis 1068; Quantity n 0.14) was 18 mm and the “Diameter of zone of inhibition” value (S. epidermidis 1068; Quantity n 0.29) was 22 mm. For the same molecule, the “Diameter of zone of inhibition” value (S. epidermidis 1071; Quantity n 0.029) was 14 mm, the “Diameter of zone of inhibition” value (S. epidermidis 1071; Quantity n 0.14) was 22 mm and the “Diameter of zone of inhibition” value (S. epidermidis 1071; Quantity n 0.29) was 26 mm. For the same molecule, the “Diameter of zone of inhibition” value (S. epidermidis 563; Quantity n 0.029) was 12 mm, the “Diameter of zone of inhibition” value (S. epidermidis 563; Quantity n 0.14) was 22 mm and the “Diameter of zone of inhibition” value (S. epidermidis 563; Quantity n 0.29) was 24 mm. The “Diameter of zone of inhibition” value (S. epidermidis 847; Quantity n [mol] 0.029) was 12 mm, the “Diameter of zone of inhibition” value (S. epidermidis 847; Quantity n [mol] 0.14) was 20 mm and the “Diameter of zone of inhibition” value (S. epidermidis 847; Quantity n [mol] 0.29) was 24 mm. For the same molecule, the Survival/tested mice n/n [2] was 12/12.

Source: US20110040086A1, “Novel Beta-Lactam Antibiotics, Methods for Their Production, and Their Use” (DRITTE PATENTPORTFOLIO BETEILIGUNGSGESELLSCHAFT MB, priority 2007, published 2011)
